Data on nine compounds can be found in US8865715B2, “Substituted 7-(1,2,3-Triazol-4-yl)-pyrrolo[2,3-b]pyrazines” (Merck Patent GmbH, priority 2010, dated 2014).

What all share (assay type): biochemical
The target in experiment [1] is T1, TANK binding kinase (TBK1) (Homo sapiens, UniProt Q9UHD2).
T1 sequence (Q9UHD2 1-729): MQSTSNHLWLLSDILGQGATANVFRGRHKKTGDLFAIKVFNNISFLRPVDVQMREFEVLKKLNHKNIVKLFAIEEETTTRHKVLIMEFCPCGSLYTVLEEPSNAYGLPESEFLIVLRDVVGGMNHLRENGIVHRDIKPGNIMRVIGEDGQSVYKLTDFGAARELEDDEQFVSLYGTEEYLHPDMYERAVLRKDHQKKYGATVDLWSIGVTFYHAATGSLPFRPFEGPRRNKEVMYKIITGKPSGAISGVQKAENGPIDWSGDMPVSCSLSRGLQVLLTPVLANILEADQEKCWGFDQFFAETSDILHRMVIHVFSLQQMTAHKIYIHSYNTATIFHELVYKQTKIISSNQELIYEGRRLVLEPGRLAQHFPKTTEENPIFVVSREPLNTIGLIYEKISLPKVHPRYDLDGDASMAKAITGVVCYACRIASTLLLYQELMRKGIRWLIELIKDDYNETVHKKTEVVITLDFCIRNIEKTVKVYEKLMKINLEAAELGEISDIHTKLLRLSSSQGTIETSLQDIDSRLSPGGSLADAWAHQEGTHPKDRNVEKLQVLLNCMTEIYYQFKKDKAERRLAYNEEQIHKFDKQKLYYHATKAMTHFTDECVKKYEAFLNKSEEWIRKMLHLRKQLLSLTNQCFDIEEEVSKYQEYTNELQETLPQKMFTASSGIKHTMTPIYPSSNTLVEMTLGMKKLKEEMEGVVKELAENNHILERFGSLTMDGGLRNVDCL
Kind of experiment: TBK1-kinase test, 384-well flashplate assay. As to the method: The kinase assay is performed as 384-well flashplate assay. 0.6 nM TANK binding kinase (TBK1), 800 nM biotinylated MELK-derived peptide (biotin-Ah-Ah-[…]) and 10 μM ATP (with 0.25 μCi of ^33P-ATP/well) are incubated in a total volume of 50 μl (10 mM MOPS, 10 mM magnesium acetate, 0.1 mM EGTA, 1 mM DTT, 0.02% of Brij35, 0.1% of BSA, pH 7.5) with or without test substance at 30° C. for 120 min. The reaction is stopped using […] of 200 mM EDTA solution, filtered off with suction after 30 min at room temperature, and the wells are washed 3 times with 100 μl of 0.9% NaCl solution. The non-specific proportion of the kinase reaction (blank) is determined using 100 nM staurosporine. Radioactivity is measured in the Topcount. IC50 values are calculated using RS1.

For experiment [2], the target named is T2, IKKε (Homo sapiens, UniProt Q14164).
T2 sequence (Q14164 1-716): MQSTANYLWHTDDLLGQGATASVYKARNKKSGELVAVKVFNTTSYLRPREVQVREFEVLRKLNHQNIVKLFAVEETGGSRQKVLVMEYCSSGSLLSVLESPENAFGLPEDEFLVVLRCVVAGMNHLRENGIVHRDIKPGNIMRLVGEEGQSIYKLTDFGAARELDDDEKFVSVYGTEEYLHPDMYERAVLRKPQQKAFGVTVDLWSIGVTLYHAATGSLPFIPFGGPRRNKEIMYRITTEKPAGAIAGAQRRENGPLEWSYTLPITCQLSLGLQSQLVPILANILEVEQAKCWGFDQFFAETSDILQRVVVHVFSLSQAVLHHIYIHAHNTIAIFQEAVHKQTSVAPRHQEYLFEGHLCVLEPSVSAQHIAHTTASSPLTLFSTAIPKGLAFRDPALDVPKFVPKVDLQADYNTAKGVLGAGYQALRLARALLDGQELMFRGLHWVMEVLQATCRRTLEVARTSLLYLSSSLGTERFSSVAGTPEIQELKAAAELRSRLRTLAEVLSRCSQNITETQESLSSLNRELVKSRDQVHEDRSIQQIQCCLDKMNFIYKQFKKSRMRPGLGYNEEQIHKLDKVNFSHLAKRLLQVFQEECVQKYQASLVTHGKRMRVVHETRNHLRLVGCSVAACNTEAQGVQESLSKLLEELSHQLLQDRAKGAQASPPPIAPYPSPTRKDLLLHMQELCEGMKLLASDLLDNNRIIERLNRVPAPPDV
Kind of experiment: IKKε-kinase test (IKKepsilon), 384-well flashplate assay. As to the method: IKKε-Kinase Test (IKKepsilon)
The kinase assay is performed as 384-well flashplate assay. 1 nM IKKε, 800 nM biotinylated IκBα(19-42) peptide (biotin-C6-C6-[…]) and 10 μM ATP (with 0.3 μCi of ^33P-ATP/well) are incubated in a total volume of 50 μl (10 mM MOPS, 10 mM magnesium acetate, 0.1 mM EGTA, 1 mM dithiothreitol, 0.02% of Brij35, 0.1% of BSA, 0.1% of BioStab, pH 7.5) with or without test substance at 30° C. for 120 min. The reaction is stopped using […] of 200 mM EDTA solution, filtered off with suction after 30 min at room temperature, and the wells are washed 3 times with 100 μl of 0.9% NaCl solution. The non-specific proportion of the kinase reaction (blank) is determined using 3 μM EMD 1126352 (BX-795). Radioactivity is measured in the Topcount. IC50 values are calculated using RS1.

Experiment [3] has as its target T3, PDK1 (Homo sapiens, UniProt O15530).
T3 construct: His6 (N)
T3 sequence (O15530 51-556 limits assumed): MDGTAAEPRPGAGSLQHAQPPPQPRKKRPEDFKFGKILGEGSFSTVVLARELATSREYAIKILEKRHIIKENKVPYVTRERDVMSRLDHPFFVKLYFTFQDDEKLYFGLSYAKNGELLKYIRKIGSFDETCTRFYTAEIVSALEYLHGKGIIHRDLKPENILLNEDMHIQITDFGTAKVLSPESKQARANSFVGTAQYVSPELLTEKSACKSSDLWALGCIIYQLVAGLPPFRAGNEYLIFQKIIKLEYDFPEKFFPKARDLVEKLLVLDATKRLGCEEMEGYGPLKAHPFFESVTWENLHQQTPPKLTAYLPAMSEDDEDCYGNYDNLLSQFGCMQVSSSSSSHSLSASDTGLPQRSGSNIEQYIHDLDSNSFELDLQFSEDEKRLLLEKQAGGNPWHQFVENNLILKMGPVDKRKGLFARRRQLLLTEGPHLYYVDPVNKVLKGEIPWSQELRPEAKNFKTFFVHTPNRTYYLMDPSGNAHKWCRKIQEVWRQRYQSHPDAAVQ
In words: Test for the inhibition of PDK1 (384-well flashplate, 33P-ATP). As to the method: 4.0 Test for the Inhibition of PDK1
The experimental batches are carried out in a flashplate system with 384 wells/microtitration plate.
In each case, the PDK1 sample His6-PDK1(1-50) (3.4 nM), the PDK1 substrate biotin-bA-bA-[…] (400 nM), 4 μM ATP (with 0.2 μCi of ^33P-ATP/well) and the test substance in 50 μl of conventional experimental solution per well are incubated at 30° C. for 60 min. The test substances are employed in corresponding concentrations (if desired in a dilution series). The control is carried out without test substance. The reaction is stopped using standard methods and washed. The activity of the kinase is measured via the incorporated radioactivity in top count. In order to determine the non-specific kinase reaction (blank value), the experimental batches are carried out in the presence of 100 nM staurosporine.
The radioactivity (decompositions per minute) of the blank value (no use of test substance in the presence of staurosporine) is subtracted from all other radioactivity values. The controls (kinase activity without test substance) are set equal to 100 percent and all other radioactivity values (after subtracting the blank value) are expressed set in relation thereto (for example in % of the control).
IC50 values (50% inhibition) are determined with the aid of statistics programmes, such as, for example, RS1.

Regarding `c1ccc(Cn2cc(-c3c[nH]c4nccnc34)nn2)cc1` [Compound A1, 7-(1-benzyl-1H-1,2,3-triazol-4-yl)-5H-pyrrolo[2,3-b]pyrazine], the concentration for half-maximal inhibition (IC50) in experiment [1], in experiment [2] and in experiment [3] was 1000 to 10000 nM in each case.

Take `Cn1cc(-c2cnc3[nH]cc(-c4cn(Cc5ccccc5)nn4)c3n2)cn1` [Compound A2, 7-(1-benzyl-1H-1,2,3-triazol-4-yl)-2-(1-methyl-1H-pyrazol-4-yl)-5H-pyrrolo[2,3-b]pyrazine]: the IC50 in experiment [1], in experiment [2] and in experiment [3] was 0.5 to 1000 nM in each case.

Consider `Cn1cc(-c2cnc3[nH]cc(-c4cn(Cc5ccccc5F)nn4)c3n2)cn1` [Compound A12], for which the half-inhibitory concentration (IC50) in experiment [1] and in experiment [3] was 0.5 to 1000 nM in each case.

`Cn1cc(-c2cnc3[nH]cc(-c4cn(Cc5cccc(F)c5)nn4)c3n2)cn1` [Compound A3]: the IC50 in experiment [1], in experiment [2] and in experiment [3] was 0.5 to 1000 nM throughout.

Regarding `Cn1cc(-c2cnc3[nH]cc(-c4cn(Cc5ccccc5Cl)nn4)c3n2)cn1` [Compound A5], the IC50 in experiment [1], in experiment [2] and in experiment [3] was 0.5 to 1000 nM in each case.

For `Cn1cc(-c2cnc3[nH]cc(-c4cn(Cc5ccc(F)cc5)nn4)c3n2)cn1` [Compound A10], the concentration for half-maximal inhibition (IC50) in experiment [1], in experiment [2] and in experiment [3] was 0.5 to 1000 nM in each case.

Take `Cn1cc(-c2cnc3[nH]cc(-c4cn(C(CCN5CCCC5)c5ccccc5)nn4)c3n2)cn1` (centres unmarked) [Compound A11, 7-[1-(3-Pyrrolidin-1-yl-1-phenylpropyl)-1H-1,2,3-triazol-4-yl]-2-(1-methyl-1H-pyrazol-4-yl)-5H-pyrrolo[2,3-b]pyrazine]: the IC50 in experiment [1], in experiment [2] and in experiment [3] was 0.5 to 1000 nM throughout.

With `Cn1cc(-c2cnc3[nH]cc(-c4cn(Cc5cccc(F)c5F)nn4)c3n2)cn1` [Compound A7], the half-maximal inhibitory concentration (IC50) in experiment [1], in experiment [2] and in experiment [3] was 0.5 to 1000 nM in each case.

Consider `Cn1cc(-c2cnc3[nH]cc(-c4cn(Cc5ccccc5C#N)nn4)c3n2)cn1` [Compound A4], for which the IC50 in experiment [1], in experiment [2] and in experiment [3] was 0.5 to 1000 nM in each case.
